Source: US20230051589A1, “COMPOUNDS AND COMPOSITIONS FOR TREATING CONDITIONS ASSOCIATED WITH NLRP ACTIVITY” (Novartis AG, priority 2018, published 2023)
Where two headings read alike, the source gives them in different places. Values belong to the compound of their own block, whether it stands above or below them.

System: IL-1β production in PMA-differentiated THP-1 cells
Assay: IL-1β production in PMA-differentiated THP-1 cells stimulated with gramicidin (hTHP-1 assay, 2% fetal bovine serum; Procedures 1-3)
Type: cell-based, human
Procedure: The following protocol is suitable for testing the activity of the compounds disclosed herein.
Procedure 1: IL-1β Production in PMA-Differentiated THP-1 Cells Stimulated with Gramicidin.
THP-1 cells were purchased from the American Type Culture Collection and sub-cultured according to instructions from the supplier. Cells were cultured in complete RPMI 1640 (containing 10% heat inactivated FBS, penicillin (100 units/ml) and streptomycin (100 μg/ml)), and maintained in log phase prior to experimental setup. Prior to the experiment, compounds were dissolved in dimethyl sulfoxide (DMSO) to generate a 30 mM stock. The compound stock was first pre-diluted in DMSO to 3, 0.34, 0.042 and 0.0083 mM intermediate concentrations and subsequently spotted using Echo550 liquid handler into an empty 384-well assay plate to achieve desired final concentration (e.g. 100, 33, 11, 3.7, 1.2, 0.41, 0.14, 0.046, 0.015, 0.0051, 0.0017 μM). DMSO was backfilled in the plate to achieve a final DMSO assay concentration of 0.37%. The plate was then sealed and stored at room temperature until required.
THP-1 cells were treated with PMA (Phorbol 12-myristate 13-acetate) (20 ng/ml) for 16-18 hours. On the day of the experiment the media was removed and adherent cells were detached with trypsin for 5 minutes. Cells were then harvested, washed with complete RPMI 1640, spun down, and resuspended in RPMI 1640 (containing 2% heat inactivated FBS, penicillin (100 units/ml) and streptomycin (100 μg/ml). The cells were plated in the 384-well assay plate containing the spotted compounds at a density of 50,000 cells/well (final assay volume 50 μl). Cells were incubated with compounds for 1 hour and then stimulated with gramicidin (5 μM) (Enzo) for 2 hours. Plates were then centrifuged at 340 g for 5 min. Cell free supernatant (40 μL) was collected using a 96-channel PlateMaster (Gilson) and the production of IL-1β was evaluated by HTRF (cisbio). The plates were incubated for 18 h at 4° C. and read using the preset HTRF program (donor emission at 620 nm, acceptor emission at 668 nm) of the SpectraMax i3x spectrophotometer (Molecular Devices, software SoftMax 6). A vehicle only control and a dose titration of CRID3 (100-0.0017 μM) were run concurrently with each experiment.
Procedure 2: IL-1β Production in PMA-Differentiated THP-1 Cells Stimulated with Gramicidin.
THP-1 cells were purchased from the American Type Culture Collection and sub-cultured according to instructions from the supplier. Prior to experiments, cells were cultured in complete RPMI 1640 (containing 10% heat inactivated FBS, penicillin (100 units/ml) and streptomycin (100 μg/ml)), and maintained in log phase prior to experimental setup. Prior to the experiment THP-1 were treated with PMA (Phorbol 12-myristate 13-acetate) (20 ng/ml) for 16-18 hours. Compounds were dissolved in dimethyl sulfoxide (DMSO) to generate a 30 mM stock. On the day of the experiment the media was removed and adherent cells were detached with trypsin for 5 minutes. Cells were then harvested, washed with complete RPMI 1640, spun down, resuspended in RPMI 1640 (containing 2% heat inactivated FBS, penicillin (100 units/ml) and streptomycin (100 μg/ml) . The cells were plated in a 384-well plate at a density of 50,000 cells/well (final assay volume 50 μl). Compounds were first dissolved in assay medium to obtain a 5× top concentration of 500 μM. 10 step dilutions (1:3) were then undertaken in assay medium containing 1.67% DMSO. 5× compound solutions were added to the culture medium to achieve desired final concentration (e.g. 100, 33, 11, 3.7, 1.2, 0.41, 0.14, 0.046, 0.015, 0.0051, 0.0017 μM). Final DMSO concentration was at 0.37%. Cells were incubated with compounds for 1 hour and then stimulated with gramicidin (5 μM) (Enzo) for 2 hours. Plates were then centrifuged at 340 g for 5 min. Cell free supernatant (40 μL) was collected using a 96-channel PlateMaster (Gilson) and the production of IL-1β was evaluated by HTRF (cisbio). […]

[1] = hTHP-1 assay containing 2% fetal bovine serum, Table B2, class symbols, read-out: IC50
[2] = Homo sapiens, THP-1, hTHP-1 assay containing 2% fetal bovine serum, Table B2, class symbols, read-out: IC50
[3] = Homo sapiens, THP-1, Table B3, hTHP-1 assay containing 2% fetal bovine serum, gramicidin stimulation, IL-1β readout, read-out: hTHP-1 IC50

Compound: CN1CCc2cc(S(N)(=O)=NC(=O)Nc3c4c(cc5c3CCC5)CCC4)sc2C1 (single isomer, unassigned) [Example 558, (R) or (S)-N′-((1,2,3,5,6,7-hexahydro-5-indacen-4-yl)carbamoyl)-6-methyl-4,5,6,7-tetrahydrothieno [2,3-c]pyridine-2-sulfonimidamide]
IC50 [1]: 40 to 200 nM

Compound: C=CCc1c2c(c(NC(=O)N=S(N)(=O)c3cc(C(C)(C)O)n(-c4ccccc4)n3)c3c1CCC3)CCC2 (single isomer, unassigned) [Example 566, (R) or (S)-N′-((8-allyl-1,2,3,5,6,7-hexahydro-s-indacen-4-yl)carbamoyl)-5-(2-hydroxypropan-2-yl)-1-phenyl-1H-pyrazole-3-sulfonimidaimde]
IC50 [1]: 1000 to 5000 nM

Compound: CN(C)CC(C)(C)c1ccc([S@@](N)(=O)=NC(=O)Nc2c3c(cc4c2CCC4)CCC3)cc1 [Compound 902b]
IC50 [2]: 200 to 1000 nM

Compound: CC(C)(O)c1ncc(S(N)(=O)=NC(=O)Nc2c3c(cc4c2CCC4O)CCC3)s1 (single isomer, unassigned) [Example 338, (R, S) or (R, R)-N′-((1-hydroxy-1,2,3,5,6,7-hexa-hydro-s-indacen-4-yl)-carbamoyl)-2-(2-hydroxy-propan-2-yl)thiazole-5-sulfonimidamide]
IC50 (Table B1, hTHP-1 assay containing 2% fetal bovine serum, gramicidin stimulation, IL-1β readout, read-out: hTHP-1 IC50 (average)): 1000 to 5000 nM

Compound: CNCC(C)(C)c1ccc(S(N)(=O)=NC(=O)Nc2c3c(cc4c2CCC4)CCC3)cc1 (single isomer, unassigned) [Example 519, (R) or (S)-N′-((1,2,3,5,6,7-hexahydro-s-indacen-4-yl)carbamoyl)-4-(2-methyl-1-(methylamino)propan-2-yl) benzenesulfonimidamide]
IC50 [1]: 1000 to 5000 nM

Compound: NS(=O)(=NC(=O)Nc1c2c(cc3c1CCC3)CCC2)c1cnc(C(O)(CO)CO)s1 (stereo not drawn) [Example 460, N′-((1,2,3,5,6,7-hexahydro-s-indacen-4-yl)carbamoyl)-2-(1,2,3-trihydroxypropan-2-yl) thiazole-5-sulfonimidamide]
IC50 [2]: 40 to 200 nM

Second part, the compound after the results:

IC50 [3]: 8 to 40 nM
Compound: C[C@](O)(CO)c1ncc(S(N)(=O)=NC(=O)Nc2c3c(cc4c2CC4)CCC3)s1 (stereo partly drawn) [Example 741, 2-((S)-1,2-dihydroxypropan-2-yl)-N′-((2,4,5,6-tetrahydro-1H-cyclobuta[f]inden-3-yl)carbamoyl)thiazole-5-sulfonimidamide]

IC50 [3]: 40 to 200 nM
Compound: CC(CO)(CO)c1ncc(S(N)(=O)=NC(=O)Nc2c3c(cc4c2CCC4)CCC3)s1 (stereo not drawn) [Example 756, 2-(1,3-Dihydroxy-2-methylpropan-2-yl)-N′-((1,2,3,5,6,7-hexahydro-s-indacen-4-yl)carbamoyl)thiazole-5-sulfonimidamide]

IC50 [2]: 1000 to 5000 nM
Compound: CC(C)NCc1ccc([S@](N)(=O)=NC(=O)Nc2c3c(cc4c2CCC4)CCC3)cc1 [Example 706, (R)-N′-((1,2,3,5,6,7-hexahydro-s-indacen-4-yl)carbamoyl)-4-((isopropylamino)methyl)-benzenesulfonimidamide]

IC50 [3]: 8 to 40 nM
Compound: COc1cc(-c2ccc3c(c2NC(=O)N=[S@@](N)(=O)c2cnc(C(C)(C)O)s2)CCC3)ccn1 [Example 784, (R)-2-(2-hydroxypropan-2-yl)-N′-((5-(2-methoxypyridin-4-yl)-2,3-dihydro-1H-inden-4-yl)carbamoyl)thiazole-5-sulfonimidamide]

IC50 (Table B3, hTHP-1 assay containing 2% fetal bovine serum, gramicidin stimulation, IL-1β readout, read-out: hTHP-1 IC50): 40 to 200 nM
Compound: NS(=O)(=NC(=O)Nc1c2c(cc3c1CC3)CCC2)c1cc2c(s1)CCN[C@@H]2C(F)F (single isomer, unassigned) [Example 874, (R or S,4S)-4-(difluoromethyl)-N′-((2,4,5,6-tetrahydro-1H-cyclobuta[f]inden-3-yl)carbamoyl)-4,5,6,7-tetrahydrothieno[3,2-c]pyridine-2-sulfonimidamide]

IC50 [3]: 40 to 200 nM
Compound: CC(O)(CO)c1nc(CO)c(S(N)(=O)=NC(=O)Nc2c3c(cc4c2CCC4)CCC3)s1 (stereo not drawn) [Example 753, 2-(1,2-Dihydroxypropan-2-yl)-N′-((1,2,3,5,6,7-hexahydro-s-indacen-4-yl)carbamoyl)-4-(hydroxymethyl)thiazole-5-sulfonimidamide]
